Experimental findings from patent US5256668A, “Aminopyrimidine derivatives as antiviral agents for respiratory syncytial virus” (American Home Products Corporation, priority 1993, dated 1993) are described below.

Converted amounts (≈) assume the structure as drawn. Read-outs that look alike come from different tables or passages of the source.

A word on the CC50: it is the concentration giving 50% cytotoxicity. A lower CC50 goes with harm at low concentration.

A short description of data set [1]: Cellular toxicity, minimal toxic dose that inhibits all growth, MRC-5. The data set is classed as cell-based. To be noted: human, mrc-5 cells. Here is the method: (§1) The cytotoxic activities for the compounds of Examples 1 and 2, amantadine and ribavirin were determined in five different cell lines.
In data set [2] the test system is respiratory syncytial virus RSV-9320 (subgroup B). Nature of the data set: Anti-RSV activity (RSV-9320) in HEp-2 cells. As to conditions: for IC50: human respiratory syncytial virus; for activity against subgroup B (RSV-9320): in words. It is filed as cell-based.
Data set [3] in a line: Cellular toxicity, minimal toxic dose that inhibits all growth, Vero. It is filed as cell-based. As to conditions: monkey, vero cells. How it is done:
as §1

The test system of data set [4] is respiratory syncytial virus RSVA2 (subgroup A). Kind of data set: Anti-RSV activity (RSVA2) in HEp-2 cells, crystal violet staining of cytopathic effect. It is filed as cell-based. To be noted: for EC50 / IC50: human respiratory syncytial virus; for EC50: read-out: Anti-RSVA2 ED50; for activity against subgroup A (RSVA2): in words. In general terms: Damage to the host cells serves as the signal in cytopathic effect assays.

A short description of data set [5]: Cellular toxicity, minimal toxic dose that inhibits all growth, MDCK. As to conditions: dog. The data set is classed as cell-based, Canine. How it is done: as §1
The nature of data set [6]: Cellular toxicity, minimal toxic dose that inhibits all growth, A549. It is filed as cell-based. To be noted: human, a549 cells. Here is the method: as §1
Data set [7] can be described thus: Cellular toxicity (TD50) in the anti-RSV test. To be noted: human, hep-2 cells.
A short description of data set [8]: Cellular toxicity, minimal toxic dose that inhibits all growth, HEp-2. It is filed as cell-based. As to conditions: human, hep-2 cells. How it is done: as §1
The test system of data set [9] is FluA/WSN. Kind of data set: Anti-flu activity against FluA/WSN in MDCK cells. The data set is classed as cell-based, influenza A virus.
The nature of data set [10]: in vitro. To be noted: human, hep-2 cells.
A short description of data set [11]: Solubility at 100 μg/ml (footnote of Table 4). The data set is classed as physicochemical. As to conditions: footnote a of Table 4.
Where [12] appears, read: Table 4, MRC-5, read-out: Minimal Toxic Dose that Inhibits All Growth, MRC-5.
The mark [13] stands for this setting: HEp-2, read-out: Median Inhibitory Concentration (IC50), RSV-9320.
Setting [14] is: Table 4, Vero, read-out: Minimal Toxic Dose that Inhibits All Growth, Vero.
The mark [15] stands for this setting: Table 4, MDCK, read-out: Minimal Toxic Dose that Inhibits All Growth, MDCK.
[16] abbreviates: Table 4, A549, read-out: Minimal Toxic Dose that Inhibits All Growth, A549.
Where [17] appears, read: Table 4, HEp-2, read-out: Minimal Toxic Dose that Inhibits All Growth, HEp-2.
The mark [18] stands for this setting: Table 3, HEp-2 cells, read-out: Median Inhibitory Concentration (IC50), RSV-9320.
Setting [19] is: 72 h, Table 2, HEp-2 cells, compound added 2 h before infection, 3 days.
Setting [20] is: Table 3, HEp-2 cells, read-out: Median Inhibitory Concentration (IC50), RSVA2.

Turning to `NC12CC3CC(CC(C3)C1)C2` [Amantadine, amantadine, reference compound], the MCC in [1] (setting [12]) was 100 µg/mL; in [3] (setting [14]) it was 100 µg/mL; in data set [5] (setting [15]) it was above 100 µg/mL; in [6] (setting [16]), above 100 µg/mL; in data set [8] (setting [17]), 100 µg/mL. In [2] (setting [13]), the IC50 was 16 µg/mL (≈ 106 µM). For the same compound, the EC50 in data set [4] (HEp-2, 72 h) turned out to be 50 µg/mL (≈ 331 µM). In data set [7], this compound returned a half-maximal cytotoxic concentration (CC50) at 72 h of 100 µg/mL (≈ 661 µM).

With `Cc1nc(=O)c(C#N)c(NCCc2cccnc2)[nH]1` [Compound 1], the MCC in data set [1] is 100 µg/mL; in data set [3], above 100 µg/mL; in [5] (mdck), above 100 µg/mL; in data set [6], above 100 µg/mL; in data set [8], above 100 µg/mL. The “activity against subgroup B (RSV-9320)” value in [2] (HEp-2 cells) was “active”. The IC50 in [2] (setting [18]) and in data set [4] (setting [20]) was at most 0.16 µg/mL in each case. Further, the “anti-flu activity against FluA/WSN” value in data set [9] is “inactive”. For the same compound, the “activity against subgroup A (RSVA2)” value in data set [4] (HEp-2 cells) was “active”. Besides, the EC50 in data set [4] (setting [19]) is 0.05 µg/mL (≈ 0.196 µM). This compound had a CC50 at 72 h in data set [10] above 16 µg/mL.

As to `Cc1nc(=O)c(Br)c(NCc2cncc(C#N)c2)[nH]1` [Compound 2], the MCC in [1] was above 50 µg/mL; in data set [3] it was above 50 µg/mL; in data set [5] (mdck) it was above 50 µg/mL; in data set [6] it was above 50 µg/mL; in data set [8], 50 µg/mL. Besides, in data set [2] (HEp-2 cells), the “activity against subgroup B (RSV-9320)” value is listed as “active”. Also, the IC50 in data set [2] (setting [18]) and in data set [4] (setting [20]) was at most 0.16 µg/mL each time. In addition, the “anti-flu activity against FluA/WSN” value in data set [9] was “inactive”. Besides, the “activity against subgroup A (RSVA2)” value in data set [4] (HEp-2 cells) was “active”. Also, in data set [4] (setting [19]), the EC50 is 0.05 µg/mL (≈ 0.156 µM). Further, in data set [10], the cytotoxic concentration (CC50) at 72 h is above 16 µg/mL. Further, the “solubility at 100 μg/ml” value in data set [11] is listed as “Not completely soluble”.

In the case of `CC(C)(C)c1nc(O)c(C#N)c(NCc2cccnc2)n1` [Compound 3], the EC50 in [4] (setting [19]) was in the range of 1.6 to 5 µg/mL (≈ 5.65 to 17.6 µM). Besides, in data set [10], the cytotoxic concentration (CC50) at 72 h is above 16 µg/mL.

With `Cc1nc(O)c(C#N)c(NCCc2ccncc2)n1` [Compound 4], the EC50 in data set [4] (setting [19]) is 0.16 µg/mL (≈ 0.627 µM). In [10], this compound yielded a 50% cytotoxic concentration (CC50) at 72 h above 16 µg/mL.

Regarding `Cc1nc(=O)c(C#N)c(NCc2ccccc2)[nH]1` [Compound 5], the EC50 in data set [4] (setting [19]) turned out to be 1.6 µg/mL (≈ 6.66 µM). For the same compound, in [10], the half-maximal cytotoxic concentration (CC50) at 72 h is above 16 µg/mL.

Turning to `Cc1nc(=O)c(C#N)c(NCCN(C)C)[nH]1` [Compound 6], the EC50 in data set [4] (setting [19]) was 5 µg/mL (≈ 22.6 µM). In addition, the CC50 at 72 h in data set [10] was above 16 µg/mL.

As to `Cc1nc(=O)c(C#N)c(NCCN2CCCC2)[nH]1` [Compound 7], in data set [4] (setting [19]), the EC50 came to 1.6 µg/mL (≈ 6.47 µM). Moreover, the CC50 at 72 h in data set [10] was found to be 16 µg/mL (≈ 64.7 µM).

`Cc1nc(=O)c(Br)c(NCCc2cccnc2)[nH]1` [Compound 8]: the EC50 in data set [4] (setting [19]) was found to be 0.005 µg/mL (≈ 0.0162 µM). This compound yielded a 50% cytotoxic concentration (CC50) at 72 h in [10] above 16 µg/mL.

With `CCCN(CCC)CCNc1[nH]c(C)nc(=O)c1Br` [Compound 9], the EC50 in data set [4] (setting [19]) came out at 1.6 µg/mL (≈ 4.83 µM). Also, in data set [10], the CC50 at 72 h is above 16 µg/mL.

Take `Cc1nc(=O)c(Br)c(NCc2ccc3c(c2)OCO3)[nH]1` [Compound 10]: in data set [4] (setting [19]), the EC50 was found to be 0.05 µg/mL (≈ 0.148 µM). In [10], this compound had a 50% cytotoxic concentration (CC50) at 72 h above 16 µg/mL.

As for `Cc1nc(=O)c(Br)c(NCc2ccsc2)[nH]1` [Compound 11], the EC50 in data set [4] (setting [19]) worked out at 0.5 µg/mL (≈ 1.67 µM). The compound further showed a CC50 at 72 h in data set [10] above 16 µg/mL.

Turning to `C=CCOc1ccc(CCNc2[nH]c(C)nc(=O)c2Br)cc1OC` [Compound 12], the EC50 in data set [4] (setting [19]) is 0.5 µg/mL (≈ 1.27 µM). Further, the CC50 at 72 h in data set [10] is above 16 µg/mL.

Turning to `Cc1nc(=O)c(Cl)c(NCc2cncc(Br)c2)[nH]1` [Compound 13], the EC50 in [4] (setting [19]) amounted to 0.016 µg/mL (≈ 0.0485 µM). The compound further yielded a CC50 at 72 h in [10] above 16 µg/mL.

In the case of `COc1ccc(Br)cc1CCNc1[nH]c(C)nc(=O)c1Br` [Compound 14], the EC50 in data set [4] (setting [19]) was 0.5 µg/mL (≈ 1.2 µM). Further, the cytotoxic concentration (CC50) at 72 h in [10] is above 16 µg/mL.

On to `Cc1nc(=O)c(F)c(NCc2cccnc2)[nH]1` [Compound 15], for which the EC50 in data set [4] (setting [19]) is 0.05 µg/mL (≈ 0.213 µM). In data set [10], the CC50 at 72 h was above 16 µg/mL.

As for `Cc1nc(=O)c(Br)c(NCCN(C)C)[nH]1` [Compound 16], the EC50 in data set [4] (setting [19]) turned out to be 0.16 µg/mL (≈ 0.582 µM). In data set [10], this compound returned a 50% cytotoxic concentration (CC50) at 72 h above 16 µg/mL.

Take `Cc1nc(NCc2cncc(Br)c2)c(Br)c(=O)[nH]1` [Compound 17]: the EC50 in data set [4] (setting [19]) was 0.016 µg/mL (≈ 0.0428 µM). In addition, the 50% cytotoxic concentration (CC50) at 72 h in data set [10] is above 16 µg/mL.

With `NC(=O)c1ncn([C@@H]2O[C@H](CO)[C@@H](O)[C@H]2O)n1` [Ribavirin, ribavirin, reference compound], the MCC in data set [1] (setting [12]) was 100 µg/mL; in data set [3] (setting [14]) it was 100 µg/mL; in data set [5] (setting [15]), 100 µg/mL; in [6] (setting [16]) it was 100 µg/mL; in data set [8] (setting [17]), 50 µg/mL. Moreover, the IC50 in data set [2] (setting [13]) is 5 µg/mL (≈ 20.5 µM); in [4] (HEp-2, read-out: Median Inhibitory Concentration (IC50), RSVA2), 1.6 to 5 µg/mL (≈ 6.55 to 20.5 µM). Also, the EC50 in [4] (HEp-2, 72 h) fell in the range of 1.6 to 5 µg/mL (≈ 6.55 to 20.5 µM). In data set [7], the CC50 at 72 h was 50 µg/mL (≈ 205 µM).
